US12514908B2 (MAPI PHARMA LTD., priority 2021, dated 2026)
Where “and” joins values, the source holds several entries; their conditions need not be identical. Identical values can stand only once.

How the values were obtained:
db/db mice = test: Example 4 death of an animal in db/db mice (Table 10B); assay type: in vivo; conditions: 0.4 mg/kg, SC, Daily, animal No. 3, after Day 7 (3 h), before Day 14
in vivo = conditions: male, db/db, mouse, plasma, sc
[1] = Example 4 semaglutide plasma concentrations in db/db mice; conditions: for Plasma concentrations, individual animals: SC, Daily, listed as Semaglutide API
[2] = Example 5 plasma concentrations and pharmacokinetic parameters in male Gottingen minipigs; assay type: in vivo
Method: […] At each time point, ˜2.0 ml of blood was withdrawn and transferred into a prelabeled K2EDTA coated vacutainers and mixed gently by inverting the tube to facilitate mixing of anticoagulant with the blood. Blood samples were kept on gel packs until centrifugation. The collected blood samples were centrifuged at 4,000 rpm for 10 min at 4° C. Plasma was separated after centrifugation. All plasma samples were transferred into pre-labeled (Animal ID No., Time point, Study No., and Group) tubes and stored at −70±10° C. until analysis. Blood glucose levels were determined for all blood collection time points.
Bioanalysis was performed using fit-for-purpose liquid chromatography mass spectrometry (LC-MS/MS) method for the quantification of semaglutide in plasma samples. Linearity range was 1 to 204 ng/ml. Semaglutide were extracted from mini pigs plasma samples using solid phase extraction technique and quantified using LC-MS/MS with Electro Spray Ionization (ESI) and multiple reaction monitoring (MRM) in positive ionization mode.

[3] = Example 6 semaglutide plasma levels in db/db mice; assay type: in vivo; conditions: 0.02 mg/kg/day SC daily
Method: Naïve control, n=5 • 2. Vehicle (db/db mice) SC administered daily (dose-(vehicle) 1 ml/kg/day, for 42 days), n=10 • 3.
Body weight and food consumption were monitored daily. Ad-lib fed blood glucose levels were measured every third day. Fasted blood glucose levels were measured on Day-14, Day-28 and Day-42. Glycated hemoglobin (hbA1c) levels were measured on Day-0, Day-28, and Day-42.

Which “Mortality (animal died)” value (db/db mice) does the source give for `CC[C@H](C)[C@H](NC(=O)[C@H](Cc1ccccc1)NC(=O)[C@H](CCC(=O)O)NC(=O)[C@H](CCCCNC(=O)COCCOCCNC(=O)COCCOCCNC(=O)CC[C@H](NC(=O)CCCCCCCCCCCCCCCCC(=O)O)C(=O)O)NC(=O)[C@H](C)NC(=O)[C@H](C)NC(=O)[C@H](CCC(N)=O)NC(=O)CNC(=O)[C@H](CCC(=O)O)NC(=O)[C@H](CC(C)C)NC(=O)[C@H](Cc1ccc(O)cc1)NC(=O)[C@H](CO)NC(=O)[C@H](CO)NC(=O)[C@@H](NC(=O)[C@H](CC(=O)O)NC(=O)[C@H](CO)NC(=O)[C@@H](NC(=O)[C@H](Cc1ccccc1)NC(=O)[C@@H](NC(=O)CNC(=O)[C@H](CCC(=O)O)NC(=O)C(C)(C)NC(=O)[C@@H](N)Cc1cnc[nH]1)[C@@H](C)O)[C@@H](C)O)C(C)C)C(=O)N[C@@H](C)C(=O)N[C@@H](Cc1c[nH]c2ccccc12)C(=O)N[C@@H](CC(C)C)C(=O)N[C@H](C(=O)N[C@@H](CCCNC(=N)N)C(=O)NCC(=O)N[C@@H](CCCNC(=N)N)C(=O)NCC(=O)O)C(C)C` [semaglutide, [Aib8, Lys26 (γGlu-2xOEG-C18 acid), Arg34]-hGLP-1-(7-37)-OH] here?
Its value is “Animal died”.

What about the level at 24 h (in vivo; 0.06 mg/kg/day) of the same molecule?
Its level at 24 h is 100 to 500 ng/mL.

What about the level at 24 h (in vivo; 0.4 mg/kg/day) of the same molecule?
Its level at 24 h is 500 to 4500 ng/mL.

What about the “Plasma concentrations, individual animals” value ([1]; 0.06 mg/kg, Day 1 (3 h), 0.06 mg/kg) of the same molecule?
Its value is 230 ng/mL.

And the “Plasma concentrations, individual animals” value ([1]; 0.06 mg/kg, Day 7 (0 h), 0.06 mg/kg)?
Its value is 206 ng/mL.

And the “Plasma concentrations, individual animals” value ([1]; 0.06 mg/kg, Day 7 (3 h), 0.06 mg/kg)?
The value was 855 ng/mL.

What about the “Plasma concentrations, individual animals” value ([1]; 0.06 mg/kg, Day 21 (0 h), 0.06 mg/kg) of the same molecule?
The value was 171 ng/mL and 269 ng/mL.

What about the “Plasma concentrations, individual animals” value ([1]; 0.06 mg/kg, Day 21 (3 h), 0.06 mg/kg) of the same molecule?
The value was 867 ng/mL.

And the “Plasma concentrations, individual animals” value ([1]; 0.06 mg/kg, Day 28 (0 h), 0.06 mg/kg)?
The value was 320 ng/mL and 257 ng/mL.

And the “Plasma concentrations, individual animals” value ([1]; 0.06 mg/kg, Day 28 (3 h), 0.06 mg/kg)?
The value was 474 ng/mL and 406 ng/mL.

And the “plasma levels at 3 hrs post injection” value ([1]; 0.06 mg/kg/day SC daily)?
Its value is “increase in plasma levels”.

What about the “Plasma concentrations, individual animals” value ([1]; 0.4 mg/kg, Day 1 (3 h), 0.4 mg/kg) of the same molecule?
Its value is 1310 ng/mL.

What about the “Plasma concentrations, individual animals” value ([1]; 0.4 mg/kg, Day 14 (3 h), 0.4 mg/kg) of the same molecule?
Its value is 6500 ng/mL.

What about the “Plasma concentrations, individual animals” value ([1]; 0.4 mg/kg, Day 21 (0 h), 0.4 mg/kg) of the same molecule?
The value was 2550 ng/mL.

What about the “Plasma concentrations, individual animals” value ([1]; 0.4 mg/kg, Day 28 (0 h), 0.4 mg/kg) of the same molecule?
The value was 2880 ng/mL and 1460 ng/mL.

And the “Plasma concentrations, individual animals” value ([1]; 0.4 mg/kg, Day 28 (3 h), 0.4 mg/kg)?
Its value is 6690 ng/mL.

What about the “plasma levels 3 hrs post injection” value ([1]; 0.4 mg/kg/day SC daily) of the same molecule?
The value was “increase in plasma levels”.

And the “dose dependence of the increase in plasma levels” value ([1]; between 0.06 and 0.4 mg/kg daily doses)?
Its value is “dose proportional”.

And the “Mean plasma concentrations of semaglutide” value ([2]; Group 2, repeated SC 0.008 mg/kg every 3 days until Day 28, n=3, 0 h)?
Its value is 0 ng/mL.

And the level at 6 h ([2]; minipig, plasma, Group 2, repeated SC 0.008 mg/kg every 3 days until Day 28, n=3, 6 h)?
Its level at 6 h is 9.64 ng/mL.

What about the level at 12 h ([2]; minipig, plasma, Group 2, repeated SC 0.008 mg/kg every 3 days until Day 28, n=3, 12 h) of the same molecule?
The level at 12 h was 10.2 ng/mL.

And the level at 24 h ([2]; minipig, plasma, Group 2, repeated SC 0.008 mg/kg every 3 days until Day 28, n=3, 24 h)?
The level at 24 h was 11 ng/mL.

What about the level at 48 h ([2]; minipig, plasma, Group 2, repeated SC 0.008 mg/kg every 3 days until Day 28, n=3, 48 h) of the same molecule?
The level at 48 h was 9.67 ng/mL.

What about the level at 72 h ([2]; minipig, plasma, Group 2, repeated SC 0.008 mg/kg every 3 days until Day 28, n=3, 72 h) of the same molecule?
Its level at 72 h is 9.43 ng/mL.

What about the level at 84 h ([2]; minipig, plasma, Group 2, repeated SC 0.008 mg/kg every 3 days until Day 28, n=3, 84 h) of the same molecule?
The level at 84 h was 17.7 ng/mL.

What about the level at 144 h ([2]; minipig, plasma, Group 2, repeated SC 0.008 mg/kg every 3 days until Day 28, n=3, 144 h) of the same molecule?
The level at 144 h was 13.1 ng/mL.

And the level at 156 h ([2]; minipig, plasma, Group 2, repeated SC 0.008 mg/kg every 3 days until Day 28, n=3, 156 h)?
The level at 156 h was 35 ng/mL.

And the level at 216 h ([2]; minipig, plasma, Group 2, repeated SC 0.008 mg/kg every 3 days until Day 28, n=3, 216 h)?
The level at 216 h was 27.3 ng/mL.

What about the level at 228 h ([2]; minipig, plasma, Group 2, repeated SC 0.008 mg/kg every 3 days until Day 28, n=3, 228 h) of the same molecule?
The level at 228 h was 31.3 ng/mL.

What about the level at 288 h ([2]; minipig, plasma, Group 2, repeated SC 0.008 mg/kg every 3 days until Day 28, n=3, 288 h) of the same molecule?
The level at 288 h was 23 ng/mL.

What about the level at 300 h ([2]; minipig, plasma, Group 2, repeated SC 0.008 mg/kg every 3 days until Day 28, n=3, 300 h) of the same molecule?
Its level at 300 h is 21.3 ng/mL.

What about the level at 360 h ([2]; minipig, plasma, Group 2, repeated SC 0.008 mg/kg every 3 days until Day 28, n=3, 360 h) of the same molecule?
Its level at 360 h is 34 ng/mL.

And the level at 504 h ([2]; minipig, plasma, Group 2, repeated SC 0.008 mg/kg every 3 days until Day 28, n=3, 504 h (For G2))?
The level at 504 h was 27.3 ng/mL.

And the level at 648 h ([2]; minipig, plasma, Group 2, repeated SC 0.008 mg/kg every 3 days until Day 28, n=3, 648 h (For G2))?
The level at 648 h was 23.4 ng/mL.

And the level at 720 h ([2]; minipig, plasma, Group 2, repeated SC 0.008 mg/kg every 3 days until Day 28, n=3, 720 h (Day 30))?
Its level at 720 h is 27 ng/mL.

And the “course of plasma levels” value [3]?
The value was “fluctuations with increase in plasma levels 3 h post injections”.
